Measured values taken from patent US20210128702A1 (priority 2017, published 2021).

Tests used:
Type in all cases: cell-based
U266 cells = system: U266 cells
MM.1S cells [1] = system: MM.1S cells
MM.1S cells [2] = system: MM.1S cells; remark: listed apart in the source
[3] = system: Non-MM, bone marrow cells (CD138−)
4 MM cell lines = system: 4 MM cell lines

With tunicamycin the “sensitization to Btz-induced apoptosis” value (U266 cells) was “sensitizes U266 cells to Btz-induced apoptosis”.

For `C[C@@H]1C[C@@H]([C@H](O)CC2CC(=O)NC(=O)C2)C(=O)[C@@H](C)C1` [cycloheximide], the “effect on polyUb” value (MM.1S cells [1]) was “decreases polyUb” and the “effect on bortezomib-induced apoptosis” value (MM.1S cells [2]) was “decreased bortezomib-induced apoptosis”.

`CC(C)C[C@H](NC(=O)[C@H](Cc1ccccc1)NC(=O)c1cnccn1)B(O)O` [bortezomib] was tested, and the polyUb proteins accumulation [3] was “only modest polyUb proteins accumulation” and the “polyUb protein fluorescence (proteotoxicity)” value (4 MM cell lines) was “increased fluorescence in all cell lines”.
